According to patent US20110301192A1, “Inhibitors of Cyclin Kinase Inhibitor p21” (The regents of the University of California, priority 2008, published 2011):
“Also recorded” adds a separate entry of the source.

How the values were obtained:
ACHN and A-498 cells [1] = test: MTT cytotoxic assay (cell viability) in RCC cell lines; format: cell-based, human; conditions: 10, 50 and 100 μM in complete media, 48 hr
Procedure: After 48 hr, the MTT assay was performed as described below. The visible absorbance of each well was quantified using a microplate reader.
ACHN and A498 human RCC cells (from ATCC) were maintained in MEM 1× media supplemented with 10% fetal bovine serum, 2 mM L-glutamine, 1 mM sodium pyruvate, 0.1 mM non-essential amino acid, and 0.75% sodium bicarbonate at 37° C. in a humidified incubator containing 5% CO2 in air.
(§1) A 200 μL aliquot of cells (1×10^3 cells in quiescent media) was added to a 96 well plate and incubated for 18 hr at 37° C. in a humidified incubator containing 5% CO2 in air. After incubation, each condition of small molecule ligands (No. 4, 7, and 10) was added into each well for 48 hr and for synergic assay of Doxorubicin, after incubation for 6 hr with compound No. 10, Doxorubicin dissolved in DMSO was added to each of the 96 wells and incubated for 42 hr. Control cultures were treated with DMSO. After incubation, a 20 μL MTT solution (5 mg/mL in phosphate buffer) was added to each well and the incubation continued for 4 hr, after which time the solution in each well was carefully removed. The blue crystalline precipitate in each well was dissolved in DMSO 200 μL). The visible absorbance at 560 nm of each well was quantified using a microplate reader.

p21 [2] = target: T1, p21 (Homo sapiens, UniProt P38936); test: Immunoblotting of p21 protein levels in RCC cells; format: cell-based; conditions: serum-starved ACHN and A-498 cells; 10, 50 and 100 μM; immunoblot
Excerpt: (§2) Chemiluminescence was detected using enhanced ECL.

p27 = test: Immunoblotting of p27 protein levels in RCC cells; format: cell-based, human; conditions: all concentrations examined (10, 50, 100 μM); immunoblot
Excerpt: as §2

p57 = test: Immunoblotting of p57 protein levels in RCC cells; format: cell-based, human; conditions: all concentrations examined (10, 50, 100 μM); immunoblot
Excerpt: as §2

p21 [3] = target: T1, p21; test: p21 stability with cycloheximide or proteasome inhibitors (immunoblot); format: cell-based; conditions: ACHN and A-498 cells; 100 μM; with cycloheximide 10 μg/ml or proteasome inhibitors (lactacystin, LLnL, MG132, 20 μM)
Procedure: ACHN and A-498 cells were incubated in serum-free media for 16 hr and treated with (a) compound 10 (100 μM), cycloheximide (CHX, 10 μg/ml), or compound 10 plus CHX for the indicated time, or (b) three different proteasome inhibitors (lactascystin, 20 μM; LLnL, 20 μM; MG132, 20 μM) for 6 h and followed by incubation of compound 10 (100 μM) for the indicated time. The density ratio of p21/actin is shown. Q refers to cells incubated in serum-free media only; P refers to cells incubated with PDGF only.
as §2

p21 [4] = target: T1, p21; test: p21 ubiquitinylation (immunoprecipitation with p21 antibody, ubiquitin immunoblot); format: cell-based; conditions: ACHN and A-498 cells; 100 μM
Procedure: ACHN and A-498 cells were incubated in serum-free media for 16 hr and treated or not treated with compound 10 (100 μM) for the indicated times. Cells were harvested and immunoprecipitated with p21 antibody-agarose conjugate and immuno-blotted with either p21 or ubiquitin. Ponceau-staining heavy chain of anti-p21-IgG was performed on the same lysate as loading control.
as §2

ACHN and A-498 cells [5] = test: MTT synergy assay with doxorubicin; format: cell-based, human; conditions: 100 μM, after 6 h doxorubicin 0.1 and 0.25 μM for 42 h
Procedure: (§3) After 6 h, doxorubicin was added (0.1 and 0.25 μM) in serum containing media followed in 42 h by (a) the MTT assay as described below; and (b) immunoblotting with PARP, p21, and β-actin.
as §1

ACHN and A-498 cells [6] = test: Apoptosis (PARP immunoblot) in combination with doxorubicin; format: cell-based, human; conditions: 100 μM, after 6 h doxorubicin 0.1 and 0.25 μM for 42 h
Procedure: as §3, §2

[7] = target: T2, GST-tagged p21 recombinant protein (GST-p21) (Homo sapiens, UniProt P38936); test: Two-step OBOC bead screening with recombinant GST-p21; format: binding; conditions: OBOC beads, GST-p21 probe, GST-alone subtraction
T2 construct: purchased ProSpec-Tany TechnoGene Ltd. (Rehovot, Israel)
Procedure: OBOC beads tethered with small molecule ligands were incubated with recombinant GST-p21 (or GST alone as control) and incubated with anti-GST antibodies conjugated with alkaline phosphatase. Blue beads in stage 2 were discarded and the true positive beads (i.e., clear beads in stage 2 which indicate binding only to p21) were picked up and submitted for MS decoding.
A two-step screening of the small molecule OBOC combinatorial library was performed using GST-tagged p21 recombinant protein (GST-p21) from ProSpec-Tany TechnoGene Ltd. (Rehovot, Israel) (FIG. 2). Screening was conducted in small disposable chromatography columns. Each screening used 25,000-30,000 beads that were first blocked with 0.1% BSA in PBS with 0.1% Tween 20 (PBST). In Stage 1 of the procedure, the beads were incubated with a 1:10,000 dilution of GST-p21, washed, incubated with anti-GST antibody conjugated with alkaline phosphatase (anti-GST-AP), washed, and incubated with the phosphatase substrate 5-bromo-4-chloro-3-indolyl-phosphate (BCIP). Beads became blue and were selected for next step. Stage 2 of the procedure was to remove the false positive beads that are interacting with GST and anti-GST-AP not p21. The beads from Stage 1 were incubated with 8 M guanidine-HCl for removing bound proteins and DMF for removing blue color followed by PBST washing and re-blocking with PBST. And then the beads were incubated with GST alone, washed, incubated with anti-GST-AP, washed, and incubated with the phosphatase substrate BCIP. From this step, the clear beads were considered true positive beads, therefore they were selected and deproteinated with 8 M guanidine-HCl prior to decoding with mass spectrometry.

ACHN and A-498 cells [8] = test: Apoptosis by PARP cleavage (immunoblot) in RCC cells; conditions: up to 72 h
Procedure: Cells were harvested and immunoblotted with p57, p27, and p21. […] Cells were harvested and immunoblotted with PARP and p21. β-actin is a gel-loading control.
Cells were washed with PBS and lysed in lysis buffer (50 mM HEPES, 1% Triton X-100, 10 mM sodium pyrophosphate, 100 mM sodium fluoride, 4 mM EDTA) at 0° C. Cell lysates were centrifuged (13,000×g, 4° C., 20 min) and the supernatants were electrophoresed and immunoblotted. For immunoprecipitation, cell lysates were incubated with p21 antibody agarose-conjugate overnight at 4° C. and immunoprecipitates were washed five times with lysis buffer. The bound proteins were eluted with SDS sample buffer and elctophoresed and immnoblotted. The membranes were blocked in 5% non-fat dry milk for 1 hr at room temperature, and probed with appropriate antibodies. Membranes were then probed with HRP-tagged anti-mouse or anti-rabbit IgG antibodies diluted 1:5,000-1:15,000 in 5% non-fat dry milk for 1 hr at room temperature. Chemiluminescence was detected using enhanced ECL.

kidney cancer cell lines = test: MTT cytotoxic assay in kidney cancer cell lines (FIG. 8); format: cell-based; conditions: kidney cancer cells; 1, 10 or 20 μM in complete media; 48 hr
Procedure: The kidney cancer cells were incubated in serum-free media for 16 hr and treated with vehicle (DMSO) and serum-containing complete media (CM) alone or the indicated compounds (at 1, 10 or 20 μM) in CM. After 48 hr, the MTT assay was performed as described below. The visible absorbance of each well was quantified using a microplate reader.
as §1

T2 sequence (P38936 whole entry): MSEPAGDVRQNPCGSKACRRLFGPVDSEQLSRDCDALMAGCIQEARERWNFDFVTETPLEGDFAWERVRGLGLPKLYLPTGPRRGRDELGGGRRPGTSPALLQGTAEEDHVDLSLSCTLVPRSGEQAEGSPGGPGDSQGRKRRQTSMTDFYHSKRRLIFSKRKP
T1 sequence (P38936 whole entry): as above

Cc1ccccc1NC(=O)NC(CC(N)=O)c1ccc2c(c1)nc(-c1c3ccccc3cc3ccccc13)n2CCCN1CCCCC1C (centres unmarked) [No. 10]
cell survival / cell viability (MTT assay) (ACHN and A-498 cells [1]): dose-dependent inhibition of cell survival; also recorded: decreased; also recorded: decreasing cell viability
p21 protein levels (p21 [2]): markedly and specifically inhibited
p27 protein levels (p27): no affect
p57 protein levels (p57): no affect
p21 stability (p21 [3]): decreases p21 stability via a proteasome-mediated pathway
ubiquitinylation of p21 (p21 [4]): causes ubiquitinylation of p21; also recorded: p21 protein is bound by ubiquitin
cell survival in combination with doxorubicin (MTT assay) (ACHN and A-498 cells [5]): synergistic decrease in cell survival; also recorded: synergistic anti-proliferative activity
apoptosis in combination with doxorubicin (PARP immunoblot) (ACHN and A-498 cells [6]): increase in apoptosis
binding to p21 [7]: p21-binding
apoptosis as measured by PARP cleavage (ACHN and A-498 cells [8]): increased

Cc1ccccc1NC(=O)NC(CC(N)=O)c1ccc2c(c1)nc(-c1cccc(Oc3ccc(C(C)(C)C)cc3)c1)n2CC[C@@H]1CCCN2CCCC[C@H]12 (some centres unmarked) [LLW40]
cell survival / cell viability (MTT assay) (kidney cancer cell lines): dose-dependent inhibition of cell survival; also recorded: decreasing cell viability

Cc1ccccc1NC(=O)NC(CC(N)=O)c1ccc2c(c1)nc(-c1cccc(Oc3ccc(C(C)(C)C)cc3)c1)n2CCCN1CCC(C)CC1 (centres unmarked) [LLW39]
cell survival / cell viability (MTT assay) (kidney cancer cell lines): dose-dependent inhibition of cell survival; also recorded: decreasing cell viability

Cc1ccccc1NC(=O)NC(CC(N)=O)c1ccc2c(c1)nc(-c1cccc(Oc3ccc(C(C)(C)C)cc3)c1)n2CCCN1CCCCC1C (centres unmarked) [LLW15]
cell survival / cell viability (MTT assay) (kidney cancer cell lines): dose-dependent inhibition of cell survival; also recorded: decreasing cell viability

Cc1ccc(C)c(-c2nc3cc(C(CC(N)=O)NC(=O)Nc4ccccc4C)ccc3n2CCCN2CCCCC2C)c1 (centres unmarked) [No. 7]
cell survival / cell viability (MTT assay) (ACHN and A-498 cells [1]): dose-dependent inhibition of cell survival; also recorded: decreased; also recorded: decreasing cell viability
p21 protein levels (p21 [2]): markedly and specifically inhibited
p27 protein levels (p27): no affect
p57 protein levels (p57): no affect
binding to p21 [7]: p21-binding
apoptosis as measured by PARP cleavage (ACHN and A-498 cells [8]): increased

Cc1ccc(C)c(-c2nc3cc(C(CC(N)=O)NC(=O)Nc4ccccc4C(C)(C)C)ccc3n2CCCN2CCCCC2C)c1 (centres unmarked) [No. 4]
cell survival / cell viability (MTT assay) (ACHN and A-498 cells [1]): dose-dependent inhibition of cell survival; also recorded: decreased; also recorded: decreasing cell viability
p21 protein levels (p21 [2]): markedly and specifically inhibited
p27 protein levels (p27): no affect
p57 protein levels (p57): no affect
binding to p21 [7]: p21-binding
apoptosis as measured by PARP cleavage (ACHN and A-498 cells [8]): increased

CCN(CC)CCCn1c(-c2cccc(Oc3ccc(C(C)(C)C)cc3)c2)nc2cc(C(CC(N)=O)NC(=O)Nc3ccccc3C)ccc21 (centres unmarked) [LLW33]
cell survival / cell viability (MTT assay) (kidney cancer cell lines): dose-dependent inhibition of cell survival; also recorded: decreasing cell viability

Cc1ccccc1NC(=O)NC(CC(N)=O)c1ccc2c(c1)nc(-c1cccc(Oc3ccc(C(C)(C)C)cc3)c1)n2C1CCN(Cc2ccccc2)CC1 (centres unmarked) [LLW42]
cell survival / cell viability (MTT assay) (kidney cancer cell lines): dose-dependent inhibition of cell survival; also recorded: decreasing cell viability

Cc1ccccc1NC(=O)NC(CC(N)=O)c1ccc2c(c1)nc(-c1cccc(Oc3ccc(C(C)(C)C)cc3)c1)n2CCC1CCCCN1C (centres unmarked) [LLW38]
cell survival / cell viability (MTT assay) (kidney cancer cell lines): dose-dependent inhibition of cell survival; also recorded: decreasing cell viability

Cc1ccccc1NC(=O)NC(CC(N)=O)c1ccc2c(c1)nc(-c1cccc(Oc3ccc(C(C)(C)C)cc3)c1)n2CCCN1CCCC1 (centres unmarked) [LLW36]
cell survival / cell viability (MTT assay) (kidney cancer cell lines): dose-dependent inhibition of cell survival; also recorded: decreasing cell viability
